Source: ChEMBL document CHEMBL1136056, “Discovery of a nonpeptidic small molecule antagonist of the human platelet thrombin receptor (PAR-1)” (Bioorg Med Chem Lett, 2002)
One block for each compound: values may come before it.

Key:
[1] = molecular target: T1, Proteinase-activated receptor 1 (Homo sapiens, UniProt P25116); assay: Inhibition of secretion of radiolabeled serotonin from washed human platelets stimulated by 1 nM thrombin; type: functional
T1 sequence (P25116 whole entry): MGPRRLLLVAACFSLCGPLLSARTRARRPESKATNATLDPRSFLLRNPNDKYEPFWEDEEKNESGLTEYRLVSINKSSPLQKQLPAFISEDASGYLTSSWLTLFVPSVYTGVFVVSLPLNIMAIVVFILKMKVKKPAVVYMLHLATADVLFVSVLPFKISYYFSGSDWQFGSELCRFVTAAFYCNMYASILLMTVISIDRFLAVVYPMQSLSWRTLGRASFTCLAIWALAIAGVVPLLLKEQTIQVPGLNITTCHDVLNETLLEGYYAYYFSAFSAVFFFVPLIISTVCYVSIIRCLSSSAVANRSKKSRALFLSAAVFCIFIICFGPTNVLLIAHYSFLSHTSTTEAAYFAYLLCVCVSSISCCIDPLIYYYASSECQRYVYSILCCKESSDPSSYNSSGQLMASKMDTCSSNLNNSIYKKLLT

[2] = molecular target: T1, Proteinase-activated receptor 1; assay: Antagonistic activity against thrombin receptor, inhibition of secreted radiolabeled [3H]5-HT from washed human platelets stimulated by 3 uM thrombin receptor activating peptide (TRAP); type: functional
[3] = molecular target: T1, Proteinase-activated receptor 1; assay: Displacement of [3H]SFFLRR-NH2 from human thrombin receptor PAR-1
[4] = molecular target: T2, Proteinase-activated receptor 1 (Homo sapiens) (UniProt P25116); assay: Inhibition of secretion of radiolabeled concentration; type: functional; conditions: concentration not given here
T2 sequence (whole entry): T1 sequence (P25116 whole entry)

Prothrombin = Prothrombin (Homo sapiens, UniProt P00734); assay: Compound was tested for thrombin catalytic activity; no inhibition was observed

SMILES: CSc1ccc(-c2cc(N(CCCN3CCCCCC3)Cc3ccc4c(c3)OCO4)on2)cc1
IC50 [1]: > 4000 nM | IC50 [2]: 430 nM

SMILES: O=[N+]([O-])c1cccc(-c2cc(N(CCCN3CCCCCC3)Cc3ccc4c(c3)OCO4)[o+][n-]2)c1
IC50 [1]: > 10000 nM | IC50 [3]: 1020 nM | IC50 [2]: 830 nM

SMILES: c1ccc(-c2cc(N(CCCN3CCCCC3)Cc3ccc4ccccc4c3)on2)cc1
IC50 [2]: 2000 nM

SMILES: Fc1ccc(-c2cc(N(CCCN3CCCCCC3)Cc3ccc4c(c3)OCO4)on2)cc1
IC50 [1]: > 10000 nM | IC50 [2]: 1310 nM

SMILES: c1ccc(-c2cc(N(CCCCN3CCCCCC3)Cc3cccc4ccccc34)on2)cc1
IC50 [2]: 5000 nM

SMILES: c1ccc(-c2cc(N(CCCN3CCCCC3)CC3CCCCC3)on2)cc1
IC50 [2]: > 10000 nM

SMILES: c1ccc(-c2cc(N(CCCN3CCCCC3)Cc3ccc4c(c3)OCO4)on2)cc1
IC50 [2]: 600 nM

SMILES: c1ccc(-c2cccc(-c3cc(N(CCCN4CCCCCC4)Cc4ccc5c(c4)OCO5)on3)c2)cc1
IC50 [2]: 6420 nM

SMILES: COc1cccc(CN(CCCN2CCCCCC2)c2cc(-c3ccccc3)no2)c1
IC50 [2]: 500 nM

SMILES: C[S+]([O-])c1ccc(-c2cc(N(CCCN3CCCCCC3)Cc3ccc4c(c3)OCO4)on2)cc1 (centres undefined)
IC50 [2]: 3700 nM

SMILES: Cc1ccccc1-c1cc(N(CCCN2CCCCCC2)Cc2ccc3c(c2)OCO3)on1
IC50 [2]: 3220 nM

SMILES: COc1cccc(CN(CCCN2CCCC2)c2cc(-c3ccccc3)no2)c1
IC50 [2]: 3300 nM

SMILES: COc1cccc(CN(CCCN2CCCCCCC2)c2cc(-c3ccccc3)no2)c1
IC50 [2]: > 10000 nM

SMILES: Clc1ccccc1-c1cc(N(CCCN2CCCCCC2)Cc2ccc3c(c2)OCO3)on1
IC50 [2]: 2990 nM

SMILES: CC(C)N(CC(O)c1ccc(C#N)cc1)C(=O)Nc1ccccc1 (centres undefined)
IC50 [2]: 12000 nM

SMILES: CS(=O)(=O)c1ccc(-c2cc(N(CCCN3CCCCCC3)Cc3ccc4c(c3)OCO4)on2)cc1
IC50 [2]: 3200 nM

SMILES: c1ccc(CN(CCCN2CCCCC2)c2cc(-c3ccccc3)no2)cc1
IC50 [2]: 9000 nM

SMILES: c1ccc(-c2cc(N(CCCN3CCCCC3)Cc3cccc4ccccc34)on2)cc1
IC50 [2]: 500 nM

SMILES: COc1cccc(CN(CCCC2CCCCC2)c2cc(-c3ccccc3)no2)c1
IC50 [2]: > 10000 nM

SMILES: CCCCN(CCCN1CCCCC1)c1cc(-c2ccccc2)no1
IC50 [2]: > 40000 nM

SMILES: COc1ccccc1-c1cc(N(CCCN2CCCCCC2)Cc2ccc3c(c2)OCO3)on1
IC50 [3]: 2210 nM | IC50 [2]: 2220 nM

SMILES: COc1cccc(CN(CCCN2CCCCC2)c2cc(-c3ccccc3)no2)c1
IC50 [2]: 1600 nM

SMILES: c1ccc(-c2cc(N(CCN3CCCCCC3)Cc3cccc4ccccc34)on2)cc1
IC50 [2]: 5000 nM

SMILES: Clc1ccc(-c2cc(N(CCCN3CCCCCC3)Cc3ccc4c(c3)OCO4)on2)cc1
IC50 [1]: 4250 nM | IC50 [3]: 990 nM | IC50 [2]: 1240 nM

SMILES: Fc1ccc(-c2cc(N(CCCN3CCCCCC3)Cc3ccc4c(c3)OCO4)on2)cc1F
IC50 [1]: 2400 nM | IC50 [3]: 2140 nM | IC50 [2]: 500 nM

SMILES: Clc1cccc(CN(CCCN2CCCCC2)c2cc(-c3ccccc3)no2)c1
IC50 [2]: 1000 nM

SMILES: c1ccc(-c2ccc(-c3cc(N(CCCN4CCCCCC4)Cc4ccc5c(c4)OCO5)on3)cc2)cc1
IC50 [2]: 4440 nM

SMILES: COc1cccc(CN(CCCN2CCC2)c2cc(-c3ccccc3)no2)c1
IC50 [2]: > 10000 nM

Stronger by IC50 [2], values ahead:

IC50 [1]: 1200 nM | IC50 [3]: 520 nM | IC50 [2]: 130 nM
SMILES: COc1cc(OC)cc(-c2cc(N(CCCN3CCCCCC3)Cc3ccc4c(c3)OCO4)on2)c1

IC50 [1]: 2140 nM | IC50 [2]: 70 nM
SMILES: COc1ccc(-c2cc(N(CCCN3CCCCCC3)Cc3ccc4c(c3)OCO4)on2)cc1F

inhibition [4]: 60% | IC50 [3]: 250 nM | IC50 [2]: 130 nM
SMILES: COc1ccc(-c2cc(N(CCCN3CCCCCC3)Cc3ccc4c(c3)OCO4)on2)cc1

inhibition [4]: 60% | IC50 [3]: 890 nM | IC50 [2]: 120 nM
SMILES: Cc1cccc(-c2cc(N(CCCN3CCCCCC3)Cc3ccc4c(c3)OCO4)on2)c1

IC50 [1]: 1970 nM | IC50 [3]: 600 nM | IC50 [2]: 350 nM
SMILES: N#Cc1cccc(-c2cc(N(CCCN3CCCCCC3)Cc3ccc4c(c3)OCO4)on2)c1

IC50 [1]: 910 nM | IC50 [3]: 1160 nM | IC50 [2]: 270 nM
SMILES: Clc1cccc(-c2cc(N(CCCN3CCCCCC3)Cc3ccc4c(c3)OCO4)on2)c1

IC50 [1]: 2240 nM | IC50 [3]: 260 nM | IC50 [2]: 130 nM
SMILES: COc1cccc(-c2cc(N(CCCN3CCCCCC3)Cc3ccc4c(c3)OCO4)on2)c1

IC50 [1]: 880 nM | IC50 [3]: 470 nM | IC50 [2]: 90 nM
SMILES: Ic1ccc(-c2cc(N(CCCN3CCCCCC3)Cc3ccc4c(c3)OCO4)on2)cc1

IC50 [1]: 3200 nM | IC50 [3]: 290 nM | IC50 [2]: 140 nM
SMILES: Cc1ccc(-c2cc(N(CCCN3CCCCCC3)Cc3ccc4c(c3)OCO4)on2)cc1

IC50 [1]: 1180 nM | IC50 [3]: 770 nM | IC50 [2]: 140 nM
SMILES: Fc1cccc(-c2cc(N(CCCN3CCCCCC3)Cc3ccc4c(c3)OCO4)on2)c1

IC50 [2]: 360 nM
SMILES: c1ccc(-c2cc(N(CCCN3CCCCCC3)Cc3cccc4ccccc34)on2)cc1

IC50 [1]: 4670 nM | IC50 [3]: 1200 nM | IC50 [2]: 400 nM
SMILES: COc1ccc(-c2cc(N(CCCN3CCCCCC3)Cc3ccc4c(c3)OCO4)on2)cc1OC

IC50 [1]: 510 nM | IC50 [3]: 150 nM | Ki (Prothrombin): > 10000 nM | IC50 [2]: 90 nM
SMILES: Fc1cc(F)cc(-c2cc(N(CCCN3CCCCCC3)Cc3ccc4c(c3)OCO4)on2)c1
